Experimental data: patent US8586530B2, “Modulation of inhibition of ferrochelatase by N-methyl protoporphyrin” (University of South Florida, priority 2006, dated 2013)

Molecular target: T1, ferrochelatase variant P255G (Mus musculus, UniProt P22315, P308G)
T1 construct: In wild-type, murine, mature ferrochelatase, five tryptophan residues; penta-histidine tag (N); made in house; host or cells: E. coli BL21(DE3)
T1 sequence (P22315 54-422 P308G): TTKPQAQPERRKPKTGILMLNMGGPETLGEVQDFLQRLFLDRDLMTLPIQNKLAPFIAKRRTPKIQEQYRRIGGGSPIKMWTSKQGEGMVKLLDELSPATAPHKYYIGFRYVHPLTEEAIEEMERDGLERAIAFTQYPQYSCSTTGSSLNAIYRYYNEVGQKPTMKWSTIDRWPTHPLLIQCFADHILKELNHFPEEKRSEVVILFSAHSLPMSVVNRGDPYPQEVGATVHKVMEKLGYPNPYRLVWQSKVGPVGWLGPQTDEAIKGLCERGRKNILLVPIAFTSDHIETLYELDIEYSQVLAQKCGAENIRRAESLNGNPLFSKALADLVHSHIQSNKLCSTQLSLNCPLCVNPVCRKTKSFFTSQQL
Test: Transient kinetic analysis of NMPP inhibition (stopped-flow, zinc-protoporphyrin formation)
Type: biochemical, murine
Experimental: Enzyme (0.5 μM) was reacted with protoporphyrin (5 μM) and zinc-acetate (15 μM) in the presence of various concentrations of NMPP. The pseudo first-order rate constant k was obtained from analysis of the time course (see Materials and Methods and FIG. 4) and plotted against NMPP concentration. The enzymes used in each set were: A. wild-type ferrochelatase; B. variant P255R; C. variant P255G.
The pseudo-first order rate constant dependence on NMPP concentration was best described by equation 2:
[formula] and k−1 are the forward and reverse rate constants, respectively.
Although NMPP binding to P255G occurred via a one-step reaction, the values for the rate constants associated with this step (k1 and k−1) were similar to those determined for the rate-limiting step of the kinetic pathway for inhibition of ferrochelatase and P255R by NMPP.
Transient Kinetic Analysis. The kinetic steps involved in NMPP binding to ferrochelatase were assessed using stopped-flow absorption spectroscopic analysis by monitoring the enzymatic reaction in the presence of various concentrations of the inhibitor NMPP. The reactions were performed using a rapid scanning stopped-flow spectrophotometer (model RSM-1000; OLIS Inc.), equipped with a stopped-flow mixer and an observation chamber with an optical path-length of 4 mm. The dead time of the instrument is ˜2 ms. […] Enzymatic activity was monitored by following the increase in absorbance at 420 nm for zinc-protoporphyrin production using Zn^2+ and protoporphyrin as substrates.
The enzyme and substrate stock solutions were diluted in 100 mM Tris-acetate, pH 8.0, containing 0.5% Tween-80. […] The enzymatic reaction was initiated by mixing the contents from both syringes and reaction progression was monitored by following the increase in absorbance at 420 nm. The data were analyzed by fitting the observed absorbance values to equation 4:
[formula] where A is the observed absorbance, A0 is the initial absorbance, vs is the steady-state velocity, v0 is the initial velocity and k is the pseudo-first order rate constant for inhibitor binding. […]

forward rate constant (one-step binding): 8.2e+06 M⁻¹ s⁻¹
reverse rate constant k−1 (one-step binding): 18.7 s⁻¹
Ki (one-step fit (equation 2), from the rate constants, read-out: apparent inhibition constant Ki^app): 2.3 µM
Substance: N-methyl protoporphyrin [NMPP]
